This assay addresses T1, IRAK4 (Homo sapiens, UniProt Q9NWZ3).
T1 sequence (Q9NWZ3 1-460): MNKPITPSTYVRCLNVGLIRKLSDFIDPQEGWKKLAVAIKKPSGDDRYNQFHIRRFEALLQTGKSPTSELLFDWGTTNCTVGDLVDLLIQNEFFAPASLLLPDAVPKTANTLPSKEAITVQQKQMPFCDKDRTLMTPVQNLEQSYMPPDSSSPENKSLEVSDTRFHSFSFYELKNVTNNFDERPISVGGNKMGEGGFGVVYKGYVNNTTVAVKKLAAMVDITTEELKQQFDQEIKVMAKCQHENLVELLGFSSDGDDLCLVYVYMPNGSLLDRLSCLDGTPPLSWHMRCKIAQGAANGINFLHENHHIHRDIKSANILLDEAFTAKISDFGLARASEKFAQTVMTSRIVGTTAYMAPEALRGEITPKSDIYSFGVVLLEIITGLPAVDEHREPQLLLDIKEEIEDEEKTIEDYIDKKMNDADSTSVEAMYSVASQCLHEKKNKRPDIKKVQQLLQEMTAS
Description: OCI-LY-10 degradation assay (western blot, % IRAK4 degraded after 4 hours). In kind it is cell-based. On the set-up: endogenous in cells; host or cells: OCI-LY10. Particulars: OCI-LY10 cells; for OCI-LY10 % IRAK4 Degradation (0.01 uM) / OCI-LY10 % IRAK4 Degradation (0.1 uM) / OCI-LY10 % IRAK4 Degradation (1 uM): 4 hours; for OCI-LY10 % IRAK4 Degradation (0.01 uM): 0.01 uM compound; for OCI-LY10 % IRAK4 Degradation (0.1 uM): 0.1 uM compound; for OCI-LY10 % IRAK4 Degradation (1 uM): 1 uM compound; for OCI-LY10 % IRAK4 Degradation: IRAK4 degraded after 4 hours, western blot. The method, boiled down:
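OCI-LY10 cells (RPMI-1640, 20% FBS, 55 μM 2-ME) treated with compound at 0.003-10 μM final for 4 h at 37° C, then lysed in RIPA buffer. IRAK4 level read by fluorescent western blot (20-25 μg protein) and binned as % degraded: A >50%, B >20-50%, C <20%.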

As for `O=C1CCC(N2C(=O)c3ccc(CCCNCc4ccc(-n5cc(NC(=O)c6coc(-c7ccncc7)n6)c(C(F)F)n5)cc4)cc3C2=O)C(=O)N1` (stereo not drawn) [I-380], the “OCI-LY10 % IRAK4 Degradation (0.01 uM)” value was “C (<20% degradation)”, the “OCI-LY10 % IRAK4 Degradation (0.1 uM)” value is given as “C (<20% degradation)” and the “OCI-LY10 % IRAK4 Degradation (1 uM)” value is recorded as “C (<20% degradation)”.
For the molecule `NC(=O)[C@H](O)C[C@H]1CCc2sc3ncnc(O[C@H]4CC[C@H](N5CCN(CCOCCOCCNc6cccc7c6C(=O)N(C6CCC(=O)NC6=O)C7=O)CC5)CC4)c3c21` (stereo partly drawn) [I-91, (2R)-3-[(8R)-1-[4-[4-[2-[2-[2-[[2-(2,6-dioxo-3-piperidyl)-1,3-dioxo-isoindolin-4-yl]amino]ethoxy]ethoxy]ethyl]piperazin-1-yl]cyclohexoxy]-7,8-dihydro-6H-cyclopenta[4,5]thieno[1,2-c]pyrimidin-8-yl]-2-hydroxy-propanamide], the “OCI-LY10 % IRAK4 Degradation” value is “C (<20% degradation)”.
Regarding `O=C1CCC(N2C(=O)c3cccc(NCCOCCOCCNC(=O)c4ccc(-n5cc(NC(=O)c6coc(-c7ccnc(NCC8CC8)c7)n6)c(C(F)(F)F)n5)cc4)c3C2=O)C(=O)N1` (stereo not drawn) [I-220], the “OCI-LY10 % IRAK4 Degradation (0.01 uM)” value was “B (>20-50% degradation)”, the “OCI-LY10 % IRAK4 Degradation (0.1 uM)” value is listed as “B (>20-50% degradation)” and the “OCI-LY10 % IRAK4 Degradation (1 uM)” value was “B (>20-50% degradation)”.
For `CN(CCOCCOCCNc1cccc2c1C(=O)N(C1CCC(=O)NC1=O)C2=O)C(=O)[C@H]1C[C@H](NC(=O)c2cnc(Nc3ccc4cnccc4n3)cc2NC2CC2)C1` (stereo partly drawn) [I-44, 6-((1,6-naphthyridin-2-yl)amino)-4-(cyclopropylamino)-N-((1r,3r)-3-((2-(2-(2-((2-(2,6-dioxopiperidin-3-yl)-1,3-dioxoisoindolin-4-yl)amino)ethoxy)ethoxy)ethyl)(methyl)carbamoyl)cyclobutyl)nicotinamide], the “OCI-LY10 % IRAK4 Degradation” value is given as “B (>20-50% degradation)”.
Consider `NC(=O)c1nn(-c2ccc(CNCCOCCOCCOCCCc3cccc4c3CN(C3CCC(=O)NC3=O)C4=O)cc2)cc1NC(=O)c1coc(-c2ccnc(NCC3CC3)c2)n1` (stereo not drawn) [I-325], for which the “OCI-LY10 % IRAK4 Degradation (0.01 uM)” value was “B (>20-50% degradation)”, the “OCI-LY10 % IRAK4 Degradation (0.1 uM)” value is reported as “A (>50% degradation)” and the “OCI-LY10 % IRAK4 Degradation (1 uM)” value is “A (>50% degradation)”.
Regarding `Cc1ncsc1-c1ccc(CNC(=O)C2C[C@@H](O)CN2C(=O)[C@@H](NC(=O)COCCOCCOCCOCCOC(C)C(F)CNC(=O)c2cnc(-n3ncc4cc(C#N)cnc43)cc2NC2CC2)C(C)(C)C)cc1` (stereo partly drawn) [I-121], the “OCI-LY10 % IRAK4 Degradation” value is “C (<20% degradation)”.
On to `Cn1c(=O)n(C2CCC(=O)NC2=O)c2cccc(CCCOCCOCCNCc3ccc(-n4cc(NC(=O)c5coc(-c6ccnc(NCC(F)(F)F)c6)n5)c(C(N)=O)n4)cc3)c21` (stereo not drawn) [I-328], for which the “OCI-LY10 % IRAK4 Degradation (0.01 uM)” value is “A (>50% degradation)”, the “OCI-LY10 % IRAK4 Degradation (0.1 uM)” value is recorded as “A (>50% degradation)” and the “OCI-LY10 % IRAK4 Degradation (1 uM)” value is “A (>50% degradation)”.
In the case of `O=C1CCC(N2C(=O)c3ccc(CCCNC(=O)c4ccc(-n5cc(NC(=O)c6coc(-c7ccncc7)n6)c(C(F)F)n5)cc4)cc3C2=O)C(=O)N1` (stereo not drawn) [I-260], the “OCI-LY10 % IRAK4 Degradation (0.01 uM)” value is “C (<20% degradation)”, the “OCI-LY10 % IRAK4 Degradation (0.1 uM)” value was “C (<20% degradation)” and the “OCI-LY10 % IRAK4 Degradation (1 uM)” value is given as “C (<20% degradation)”.
Turning to `O=C1CCC(N2C(=O)c3cccc(OCCc4cnnn4CCOCCOCCNCc4ccc(-n5cc(NC(=O)c6coc(-c7ccnc(NCC8CC8)c7)n6)c(C(F)F)n5)cc4)c3C2=O)C(=O)N1` (stereo not drawn) [I-346], the “OCI-LY10 % IRAK4 Degradation (0.01 uM)” value is “B (>20-50% degradation)”, the “OCI-LY10 % IRAK4 Degradation (0.1 uM)” value is given as “A (>50% degradation)” and the “OCI-LY10 % IRAK4 Degradation (1 uM)” value is recorded as “A (>50% degradation)”.
Take `O=C1CCC(N2C(=O)c3cccc(NCCNCCOCCNCc4ccc(-n5cc(NC(=O)c6coc(-c7ccnc(NCC8CC8)c7)n6)c(C(F)(F)F)n5)cc4)c3C2=O)C(=O)N1` (stereo not drawn) [I-307]: the “OCI-LY10 % IRAK4 Degradation (0.01 uM)” value is listed as “C (<20% degradation)”, the “OCI-LY10 % IRAK4 Degradation (0.1 uM)” value was “C (<20% degradation)” and the “OCI-LY10 % IRAK4 Degradation (1 uM)” value is “C (<20% degradation)”.
Turning to `O=C1CCC(N2C(=O)c3cccc(NCCOCCN4CCO[C@H](CNC(=O)c5ccc(-n6cc(NC(=O)c7coc(-c8ccnc(NCC9CC9)c8)n7)c(C(F)F)n6)cc5)C4)c3C2=O)C(=O)N1` (stereo partly drawn) [I-250], the “OCI-LY10 % IRAK4 Degradation (0.01 uM)” value was “C (<20% degradation)”, the “OCI-LY10 % IRAK4 Degradation (0.1 uM)” value was “A (>50% degradation)” and the “OCI-LY10 % IRAK4 Degradation (1 uM)” value is “A (>50% degradation)”.
Regarding `Cn1cc(-c2nc(C(=O)Nc3cn(-c4ccc(CNCCOCCOCCNc5ccc6c(c5)C(=O)N(C5CCC(=O)NC5=O)C6=O)cc4)nc3C(F)F)co2)cn1` (stereo not drawn) [I-353], the “OCI-LY10 % IRAK4 Degradation (0.01 uM)” value is “C (<20% degradation)”, the “OCI-LY10 % IRAK4 Degradation (0.1 uM)” value is “C (<20% degradation)” and the “OCI-LY10 % IRAK4 Degradation (1 uM)” value is “C (<20% degradation)”.
For `NC(=O)c1nn(-c2ccc(C(=O)NCCOCCOCCNc3cccc4c3C(=O)N(C3CCC(=O)NC3=O)C4=O)nc2)cc1NC(=O)c1coc(-c2ccnc(NCC(F)(F)F)c2)n1` (stereo not drawn) [I-143], the “OCI-LY10 % IRAK4 Degradation” value is listed as “B (>20-50% degradation)”.
As to `N#Cc1cnc2c(cnn2-c2cc(NC3CC3)c(C(=O)N[C@H]3CC[C@H](COCCOCCOCCOCCNC(=O)COc4cccc5c4C(=O)N(C4CCC(=O)NC4=O)C5=O)CC3)cn2)c1` (stereo partly drawn) [I-18], the “OCI-LY10 % IRAK4 Degradation” value is “B (>20-50% degradation)”.
On to `CN(CCCCCOCCCc1cccc2c1C(=O)N(C1CCC(=O)NC1=O)C2=O)Cc1ccc(-n2cc(NC(=O)c3coc(-c4ccnc(NCC5CC5)c4)n3)c(C(N)=O)n2)cc1` (stereo not drawn) [I-312], for which the “OCI-LY10 % IRAK4 Degradation (0.01 uM)” value is “C (<20% degradation)”, the “OCI-LY10 % IRAK4 Degradation (0.1 uM)” value is reported as “A (>50% degradation)” and the “OCI-LY10 % IRAK4 Degradation (1 uM)” value was “A (>50% degradation)”.
For the molecule `CC(OCCOCCOCCOCCNc1cccc2c1C(=O)N(C1CCC(=O)NC1=O)C2=O)C(F)CNC(=O)c1cnc(-n2ncc3cc(C#N)cnc32)cc1NC1CC1` (stereo not drawn) [I-71], the “OCI-LY10 % IRAK4 Degradation” value was “C (<20% degradation)”.
For `CC(=O)O[C@@H]1C[C@@H](C(=O)NCc2ccc(-n3cc(NC(=O)c4coc(-c5ccnc(NCC6CC6)c5)n4)c(C(F)F)n3)cc2)N(C(=O)[C@@H](NC(=O)COCCOCCOCCNc2cccc3c2C(=O)N(C2CCC(=O)NC2=O)C3=O)C(C)(C)C)C1` (stereo partly drawn) [I-285], the “OCI-LY10 % IRAK4 Degradation (0.01 uM)” value is on record as “C (<20% degradation)”, the “OCI-LY10 % IRAK4 Degradation (0.1 uM)” value is given as “C (<20% degradation)” and the “OCI-LY10 % IRAK4 Degradation (1 uM)” value is on record as “B (>20-50% degradation)”.
Turning to `N#Cc1cnc2c(cnn2-c2cc(NC3CC3)c(C(=O)NCC(F)COCCOCCNC(=O)COc3cccc4c3C(=O)N(C3CCC(=O)NC3=O)C4=O)cn2)c1` (stereo not drawn) [I-95, 6-(5-Cyanopyrazolo[3,4-b]pyridin-1-yl)-4-(cyclopropylamino)-N-[3-[2-[2-[[2-[2-(2,6-dioxo-3-piperidyl)-1,3-dioxo-isoindolin-4-yl]oxyacetyl]amino]ethoxy]ethoxy]-2-fluoro-propyl]pyridine-3-carboxamide], the “OCI-LY10 % IRAK4 Degradation” value is “C (<20% degradation)”.
Consider `NC(=O)c1nn(-c2ccc(COCC3CCCCN3CCOCCNc3cccc4c3C(=O)N(C3CCC(=O)NC3=O)C4=O)cc2)cc1NC(=O)c1coc(-c2ccnc(NCC(F)(F)F)c2)n1` (stereo not drawn) [I-303, N-[3-carbamoyl-1-[4-[[1-[2-[2-[[2-(2,6-dioxo-3-piperidyl)-1,3-dioxo-isoindolin-4-yl]amino]ethoxy]ethyl]-2-piperidyl]methoxymethyl]phenyl]pyrazol-4-yl]-2-[2-(2,2,2-trifluoroethylamino)-4-pyridyl]oxazole-4-carboxamide], for which the “OCI-LY10 % IRAK4 Degradation (0.01 uM)” value is on record as “B (>20-50% degradation)”, the “OCI-LY10 % IRAK4 Degradation (0.1 uM)” value is on record as “A (>50% degradation)” and the “OCI-LY10 % IRAK4 Degradation (1 uM)” value is given as “A (>50% degradation)”.
Regarding `CC(C)(OCCOCCOCCOCCOCCNc1cccc2c1C(=O)N(C1CCC(=O)NC1=O)C2=O)C(F)CNC(=O)c1cnc(Nc2ccc3ncsc3c2)cc1NC1CC1` (stereo not drawn) [I-68], the “OCI-LY10 % IRAK4 Degradation” value is given as “C (<20% degradation)”.
As to `O=C1CCC(N2C(=O)c3cccc(NCCOCCN4CCN(CCOCCNCc5ccc(-n6cc(NC(=O)c7coc(-c8ccnc(NCC9CC9)c8)n7)c(C(F)F)n6)cc5)CC4)c3C2=O)C(=O)N1` (stereo not drawn) [I-348], the “OCI-LY10 % IRAK4 Degradation (0.01 uM)” value is “C (<20% degradation)”, the “OCI-LY10 % IRAK4 Degradation (0.1 uM)” value is listed as “C (<20% degradation)” and the “OCI-LY10 % IRAK4 Degradation (1 uM)” value was “A (>50% degradation)”.
Regarding `CN(CCCCCNCCCc1cccc2c1C(=O)N(C1CCC(=O)NC1=O)C2=O)C(=O)c1ccc(-n2cc(NC(=O)c3coc(-c4ccnc(NCC5CC5)c4)n3)c(C(N)=O)n2)cc1` (stereo not drawn) [I-315], the “OCI-LY10 % IRAK4 Degradation (0.01 uM)” value is on record as “C (<20% degradation)”, the “OCI-LY10 % IRAK4 Degradation (0.1 uM)” value is recorded as “C (<20% degradation)” and the “OCI-LY10 % IRAK4 Degradation (1 uM)” value is on record as “B (>20-50% degradation)”.
Consider `CC(OCCNc1cccc2c1C(=O)N(C1CCC(=O)NC1=O)C2=O)C(F)CNC(=O)c1cnc(Nc2ccc3cnccc3n2)cc1NC1CC1` (stereo not drawn) [I-77], for which the “OCI-LY10 % IRAK4 Degradation” value is “C (<20% degradation)”.

These data come from US10874743B2, “IRAK degraders and uses thereof” (Kymera Therapeutics, Inc., priority 2017, dated 2020).
